Molecular target: PICK1 (protein interacting with kinase C1), PDZ domain (Homo sapiens, UniProt Q9NRD5)
Experiment: biochemical

Sequence of PICK1 (protein interacting with kinase C1), PDZ domain (Q9NRD5 1-357 limits assumed): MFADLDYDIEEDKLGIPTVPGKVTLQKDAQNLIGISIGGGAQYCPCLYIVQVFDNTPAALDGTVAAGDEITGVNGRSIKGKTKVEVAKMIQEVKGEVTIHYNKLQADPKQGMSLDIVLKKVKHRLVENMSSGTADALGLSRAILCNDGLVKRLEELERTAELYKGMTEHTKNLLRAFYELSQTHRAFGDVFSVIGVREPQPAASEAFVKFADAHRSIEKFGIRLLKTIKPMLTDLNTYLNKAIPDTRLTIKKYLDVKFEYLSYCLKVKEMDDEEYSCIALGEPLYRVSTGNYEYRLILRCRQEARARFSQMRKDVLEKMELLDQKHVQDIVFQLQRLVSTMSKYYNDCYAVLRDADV

CC(C)(C)OC(=O)N1CCC[C@H]1C(=O)N1CCC(C(=O)N[C@H](C(=O)O)C2CCCC2)(c2ccc(Br)cc2)CC1 [BIO124]
IC50: 513 nM
